# Test results reported in patent publication US8507489B2, “Bicyclic triazoles as protein kinase modulators” (SGX Pharmaceuticals, Inc., priority 2006, dated 2013).
# Structures can show the parent of a compound that is named as a salt.
# Assays:
# GTL16 cells = experiment: 96-well XTT cell survival assay (GTL16 cells); assay type: cell-based; details: Homo sapiens, GTL 16, 72 hours
# Description: GTL16 cells were maintained in DMEM Medium supplemented with 10% fetal bovine serum (FBS) 2 mM L-Glutamine and 100 units penicillin/100 μg streptomycin, at 37° C. in 5% CO2.
# Compounds were tested in the following assays in duplicate.
# 96-well XTT assay (GTL16 cells): One day prior to assay the growth media was aspirated off and assay media was added to cells. On the day of the assay, the cells were grown in assay media containing various concentrations of compounds (duplicates) on a 96-well flat bottom plate for 72 hours at 37° C. in 5% CO2. The starting cell number was 5000 cells per well and volume was 120 μl. At the end of the 72-hour incubation, 40 μl of XTT labeling mixture (50:1 solution of sodium 3′-[1-(phenylaminocarbonyl)-3,4-tetrazolium]-bis (4-methoxy-6-nitro) benzene sulfonic acid hydrate and Electron-coupling reagent: PMS (N-methyl dibenzopyrazine methyl sulfate) were added to each well of the plate. After an additional 5 hours of incubation at 37° C., the absorbance reading at 450 nm with a background correction of 650 nm was measured with a spectrophotometer.
# c-MET = c-MET (Homo sapiens, UniProt P08581); experiment: MET luminescence-based enzyme assay (Kinase-Glo); assay type: biochemical
# Sequence of c-MET (P08581 1078-1345 limits assumed): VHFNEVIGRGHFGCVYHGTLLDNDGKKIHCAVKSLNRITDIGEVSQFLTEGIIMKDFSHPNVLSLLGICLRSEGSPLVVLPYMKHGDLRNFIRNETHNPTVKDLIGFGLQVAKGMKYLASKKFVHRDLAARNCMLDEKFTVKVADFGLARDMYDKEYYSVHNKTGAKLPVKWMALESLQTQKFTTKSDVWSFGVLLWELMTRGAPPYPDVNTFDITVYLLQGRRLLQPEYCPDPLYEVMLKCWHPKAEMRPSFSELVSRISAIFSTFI
# Description: The subscript designates positive or negative controls. The Z′ score for a robust screening assay should be ≧0.50. The typical threshold=μ+−3*σ+. Any value that falls below the threshold was designated a “hit”.
# MET Luminescence-Based Enzyme Assay
# MET kinase (see below), Kinase-Glo™ (Promega Cat#V6712).
# Negative controls contained 10 μM staurosporine.
Structure (SMILES),IC50 (GTL16 cells),IC50 (c-MET)
"CCn1cnc2ccc(Sc3nnc4ccc(-c5cnn(C)c5)nn34)cc21 [Compound 30, 3-(3-Ethyl-3H-benzoimidazol-5-ylsulfanyl)-6-(1-methyl-1H-pyrazol-4-yl)-[1,2,4]triazolo[4,3-b]pyridazine]",≤ 100 nM,< 100 nM
"c1ccc(-c2ccc3nnc(Sc4ccc5ncccc5c4)n3n2)cc1 [Compound 1, 6-(6-Phenyl-[1,2,4]triazolo[4,3-b]pyridazin-3-ylsulfanyl)-quinoline]",≤ 100 nM,< 100 nM
"Cn1cc(-c2ccc3nnc(Sc4ccc5ncn(C)c5c4)n3n2)cn1 [Compound 25, 3-(3-Methyl-3H-benzoimidazol-5-ylsulfanyl)-6-(1-methyl-1H-pyrazol-4-yl)-[1,2,4]triazolo[4,3-b]pyridazine]",≤ 100 nM,< 100 nM
"Cc1ccc2nnc(Sc3ccc4ncc(-c5cnn(C6CN(C)C6)c5)cc4c3)n2n1 [Compound 63, 3-[1-(1-Methyl-azetidin-3-yl)-1H-pyrazol-4-yl]-6-(6-methyl-[1,2,4]triazolo[4,3-b]pyridazin-3-ylsulfanyl)-quinoline]",≤ 100 nM,< 100 nM
"Cn1cc(-c2ccc3nnc(Sc4cc5cccnc5cc4F)n3n2)cn1 [Compound 10, 7-Fluoro-6-[6-(1-methyl-1H-pyrazol-4-yl)-[1,2,4]triazolo[4,3-b]pyridazin-3-ylsulfanyl]-quinoline]",≤ 100 nM,< 100 nM
"COCCn1cnc2ccc(Sc3nnc4ccc(-c5cnn(C)c5)nn34)cc21 [Compound 31, 3-[3-(2-Methoxy-ethyl)-3H-benzoimidazol-5-ylsulfanyl]-6-(1-methyl-1H-pyrazol-4-yl)-[1,2,4]triazolo[4,3-b]pyridazine]",100 to 1000 nM,< 100 nM
"Cn1cc(-c2ccc3nnc(Sc4ccc5ncncc5c4)n3n2)cn1 [Compound 12, 6-[6-(1-Methyl-1H-pyrazol-4-yl)-[1,2,4]triazolo[4,3-b]pyridazin-3-ylsulfanyl]-quinazoline]",100 to 1000 nM,100 to 1000 nM
"Cc1cc2ncccc2cc1Sc1nnc2ccc(-c3cnn(C)c3)nn12 [Compound 16, 7-Methyl-6-[6-(1-methyl-1H-pyrazol-4-yl)-[1,2,4]triazolo[4,3-b]pyridazin-3-ylsulfanyl]-quinoline]",≤ 100 nM,< 100 nM
"Fc1cccc(-c2cnc3nnc(Sc4ccc5ncccc5c4)n3n2)c1 [Compound 9, 6-[6-(3-Fluoro-phenyl)-[1,2,4]triazolo[4,3-b][1,2,4]triazin-3-ylsulfanyl]-quinoline]",≤ 100 nM,< 100 nM
"CNC(=O)c1ccc(-c2ccc3nnc(Sc4cc5cccnc5cc4C)n3n2)cc1F [Compound 18, 2-Fluoro-N-methyl-4-[3-(7-methyl-quinolin-6-ylsulfanyl)-[1,2,4]triazolo[4,3-b]pyridazin-6-yl]-benzamide]",≤ 100 nM,< 100 nM
"Fc1cccc(-c2ccc3nnc(Sc4ccc5ncsc5c4)n3n2)c1 [Compound 6, 3-(Benzothiazol-6-ylsulfanyl)-6-(3-fluoro-phenyl)-[1,2,4]triazolo[4,3-b]pyridazine]",100 to 1000 nM,100 to 1000 nM
"Cn1cc(-c2ccc3nnc(Sc4ccc5ncc(N)cc5c4)n3n2)cn1 [Compound 33, 6-[6-(1-Methyl-1H-pyrazol-4-yl)-[1,2,4]triazolo[4,3-b]pyridazin-3-ylsulfanyl]-quinolin-3-ylamine, trifluoroacetic acid salt]",≤ 100 nM,< 100 nM
"Cn1cc(-c2ccc3nnc(Sc4ccc5nccc(OCCO)c5c4)n3n2)cn1 [Compound 50, 2-{6-[6-(1-Methyl-1H-pyrazol-4-yl)-[1,2,4]triazolo[4,3-b]pyridazin-3-ylsulfanyl]-quinolin-4-yloxy}-ethanol]",≤ 100 nM,< 100 nM
"Cc1ccc2nnc(Sc3ccc4ncc(-c5cnn(CCN6CCOCC6)c5)cc4c3)n2n1 [Compound 44, 6-(6-Methyl-[1,2,4]triazolo[4,3-b]pyridazin-3-ylsulfanyl)-3-[1-(2-morpholin-4-yl-ethyl)-1H-pyrazol-4-yl]-quinoline]",≤ 100 nM,< 100 nM
"Cc1ccc2nnc(Sc3ccc4ncc(-c5cnn(CC6CN(C(=O)OC(C)(C)C)C6)c5)cc4c3)n2n1 [Compound 65, 3-{4-[6-(6-Methyl-[1,2,4]triazolo[4,3-b]pyridazin-3-ylsulfanyl)-quinolin-3-yl]-pyrazol-1-ylmethyl}-azetidine-1-carboxylic acid tert-butyl ester]",≤ 100 nM,< 100 nM
"Cn1cc(-c2ccc3nnc(Sc4cc5scnc5cc4F)n3n2)cn1 [Compound 15, 3-(5-Fluoro-benzothiazol-6-ylsulfanyl)-6-(1-methyl-1H-pyrazol-4-yl)-[1,2,4]triazolo[4,3-b]pyridazine]",≤ 100 nM,< 100 nM
"Cc1ccc2nnc(Sc3ccc4ncc(-c5cnn(C6CN(C(C)C)C6)c5)cc4c3)n2n1 [Compound 69, 3-[1-(1-Isopropyl-azetidin-3-yl)-1H-pyrazol-4-yl]-6-(6-methyl-[1,2,4]triazolo[4,3-b]pyridazin-3-ylsulfanyl)-quinoline]",≤ 100 nM,< 100 nM
"Cc1ccc2nnc(Sc3ccc4ncc(-c5cnn(C6CNC6)c5)cc4c3)n2n1 [Compound 62, 3-(1-Azetidin-3-yl-1H-pyrazol-4-yl)-6-(6-methyl-[1,2,4]triazolo[4,3-b]pyridazin-3-ylsulfanyl)-quinoline]",≤ 100 nM,< 100 nM
"Cn1cc(-c2cnc3ccc(Sc4nnc5ccc(-c6cnn(C)c6)nn45)cc3c2)cn1 [Compound 40, 3-(1-Methyl-1H-pyrazol-4-yl)-6-[6-(1-methyl-1H-pyrazol-4-yl)-[1,2,4]triazolo[4,3-b]pyridazin-3-ylsulfanyl]-quinoline]",≤ 100 nM,< 100 nM
"Cc1ccc2nnc(Sc3ccc4ncc(-c5cn[nH]c5)cc4c3)n2n1 [Compound 59, 6-(6-Methyl-[1,2,4]triazolo[4,3-b]pyridazin-3-ylsulfanyl)-3-(1H-pyrazol-4-yl)-quinoline]",100 to 1000 nM,< 100 nM
"Cn1cc(-c2cnc3[nH]cc(Sc4nnc5ccc(-c6cnn(C)c6)nn45)c3c2)cn1 [Compound 46, 6-(1-Methyl-1H-pyrazol-4-yl)-3-[5-(1-methyl-1H-pyrazol-4-yl)-1H-pyrrolo[2,3-b]pyridin-3-ylsulfanyl]-[1,2,4]triazolo[4,3-b]pyridazine]",≤ 100 nM,< 100 nM
"COc1ccnc2ccc(Sc3nnc4ccc(-c5cnn(C)c5)nn34)cc12 [Compound 26, 4-Methoxy-6-[6-(1-methyl-1H-pyrazol-4-yl)-[1,2,4]triazolo[4,3-b]pyridazin-3-ylsulfanyl]-quinoline]",≤ 100 nM,< 100 nM
"CNc1ccc2nnc(Sc3ccc4ncc(-c5cnn(C)c5)cc4c3)n2n1 [Compound 68, Methyl-{3-[3-(1-methyl-1H-pyrazol-4-yl)-quinolin-6-ylsulfanyl]-[1,2,4]triazolo[4,3-b]pyridazin-6-yl}-amine]",≤ 100 nM,< 100 nM
"Cc1ccc2nnc(Sc3ccc4ncc(-c5cnn(C)c5)cc4c3F)n2n1 [Compound 56, 5-Fluoro-3-(1-methyl-1H-pyrazol-4-yl)-6-(6-methyl-[1,2,4]triazolo[4,3-b]pyridazin-3-ylsulfanyl)-quinoline]",≤ 100 nM,< 100 nM
"CCn1cc(-c2cnc3ccc(Sc4nnc5ccc(C)nn45)cc3c2)cn1 [Compound 66, 3-(1-Ethyl-1H-pyrazol-4-yl)-6-(6-methyl-[1,2,4]triazolo[4,3-b]pyridazin-3-ylsulfanyl)-quinoline]",≤ 100 nM,< 100 nM
"CCN1CC(Cn2cc(-c3cnc4ccc(Sc5nnc6ccc(C)nn56)cc4c3)cn2)C1 [Compound 67, 3-[1-(1-Ethyl-azetidin-3-ylmethyl)-1H-pyrazol-4-yl]-6-(6-methyl-[1,2,4]triazolo[4,3-b]pyridazin-3-ylsulfanyl)-quinoline]",≤ 100 nM,< 100 nM
"Fc1cccc(-c2ccc3nnc(Sc4ccc5nncn5c4)n3n2)c1 [Compound 7, 6-(3-Fluoro-phenyl)-3-([1,2,4]triazolo[4,3-a]pyridin-6-ylsulfanyl)-[1,2,4]triazolo[4,3-b]pyridazine]",1000 to 10000 nM,1000 to 10000 nM
"Cc1ccc2nnc(Sc3ccc4ncc(-c5cnn(CC(=O)O)c5)cc4c3)n2n1 [Compound 42, {4-[6-(6-Methyl-[1,2,4]triazolo[4,3-b]pyridazin-3-ylsulfanyl)-quinolin-3-yl]-pyrazol-1-yl}-acetic acid]",1000 to 10000 nM,< 100 nM
"CNC(=O)c1ccc(-c2ccc3nnc(Sc4cc5cccnc5cc4F)n3n2)cc1F [Compound 17, 2-Fluoro-4-[3-(7-fluoro-quinolin-6-ylsulfanyl)-[1,2,4]triazolo[4,3-b]pyridazin-6-yl]-N-methyl-benzamide]",≤ 100 nM,< 100 nM
